Among the data in the supplement of paper PMC10307832 are relative viability values, retold here.

Assay in all cases: relative viability (nuclei count vs DMSO), 5 days (fraction); higher = more cells survive
Compound in assay [1]: O=C(NCCCNc1nc(Nc2cccc(NC(=O)N3CCCC3)c2)ncc1I)c1cccs1 [BX 795] + CCNC(=O)c1noc(-c2cc(C(C)C)c(O)cc2O)c1-c1ccc(CN2CCOCC2)cc1 [Luminespib] (partner 0.01 µM)
In a few lines:
(§1)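 Lung cancer cell lines were seeded in 1536-well plates and dosed by pin tool the next day, with either a single drug or a fixed anchor-drug dose combined with five library-drug doses (not always all listed) spaced in √10 steps. Five days later, one step fixed the cells and stained their nuclei (final 0.05% Triton X-100, 1% formaldehyde, 1 ug/ml Hoechst), and nuclei were counted on 4× images. Relative viability is the nuclei count in treated wells divided by the count in vehicle wells, and each value is the median of duplicate plates.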

Compound in assay [2]: O=C(NCCCNc1nc(Nc2cccc(NC(=O)N3CCCC3)c2)ncc1I)c1cccs1 [BX 795] + COc1cccc2cc(-c3nc([C@H]4CC[C@H](C(=O)O)CC4)n4ncnc(N)c34)[nH]c12 [OSI-027] (partner 0.5 µM)
An outline of the steps:
as §1

Compound in assay [3]: O=C(NCCCNc1nc(Nc2cccc(NC(=O)N3CCCC3)c2)ncc1I)c1cccs1 [BX 795] + CS(=O)(=O)N1CCN(Cc2cc3nc(-c4cccc5[nH]ncc45)nc(N4CCOCC4)c3s2)CC1 [Pictilisib] (partner 1 µM)
In a few lines:
as §1

Compound in assay [4]: O=C(NCCCNc1nc(Nc2cccc(NC(=O)N3CCCC3)c2)ncc1I)c1cccs1 [BX 795] + N=C(N)NC(=N)NCCc1ccccc1 [Phenformin] (partner 250 µM)
An outline of the steps: as §1

Compound in assay [5]: O=C(NCCCNc1nc(Nc2cccc(NC(=O)N3CCCC3)c2)ncc1I)c1cccs1 [BX 795] + CC(=O)c1c(C)c2cnc(Nc3ccc(N4CCNCC4)cn3)nc2n(C2CCCC2)c1=O [Palbociclib] (partner 0.5 µM)
In a few lines:
as §1

As to NCI-H1563, the relative viability in assay [1] (first compound 0.04 µM) is 0.593; in assay [1] (first compound 0.1265 µM) it was 0.472; in assay [1] (first compound 0.4 µM), 0.47; in assay [1] (first compound 1.265 µM), 0.447; in assay [2] (first compound 0.04 µM), 0.782; in assay [2] (first compound 0.1265 µM), 0.749. In addition, the relative viability is 0.821 in assay [2] (first compound 0.4 µM); 0.67 in assay [2] (first compound 1.265 µM); 0.689 in assay [3] (first compound 0.04 µM); 0.522 in assay [3] (first compound 0.1265 µM); 0.659 in assay [3] (first compound 0.4 µM); 0.673 in assay [3] (first compound 1.265 µM). The relative viability in assay [4] (first compound 0.04 µM) turned out to be 0.679; in assay [4] (first compound 0.1265 µM), 0.641; in assay [4] (first compound 0.4 µM), 0.744; in assay [4] (first compound 1.265 µM), 0.567.

Turning to SK-MES-1, the relative viability in assay [5] (first compound 0.04 µM) was determined as 0.303; in assay [5] (first compound 0.1265 µM), 0.302; in assay [5] (first compound 0.4 µM), 0.271; in assay [5] (first compound 1.265 µM), 0.286; in assay [1] (first compound 0.04 µM) it was 0.857; in assay [1] (first compound 0.1265 µM), 0.757. In addition, the relative viability in assay [1] (first compound 0.4 µM) is 0.78; in assay [1] (first compound 1.265 µM), 0.5; in assay [2] (first compound 0.04 µM), 0.471; in assay [2] (first compound 0.1265 µM), 0.548; in assay [2] (first compound 0.4 µM), 0.224; in assay [2] (first compound 1.265 µM), 0.299. Also, the relative viability in assay [3] (first compound 0.04 µM) amounted to 0.372; in assay [3] (first compound 0.1265 µM), 0.32; in assay [3] (first compound 0.4 µM), 0.322; in assay [3] (first compound 1.265 µM), 0.382; in assay [4] (first compound 0.04 µM) it was 0.691; in assay [4] (first compound 0.1265 µM), 0.628. The figures for the relative viability in assay [4] (first compound 0.4 µM) and in assay [4] (first compound 1.265 µM) were 0.592 and 0.419, respectively.

With NCI-H661, the relative viability in assay [5] (first compound 0.04 µM) amounted to 0.463; in assay [5] (first compound 0.1265 µM) it was 0.429; in assay [5] (first compound 0.4 µM) it was 0.429; in assay [5] (first compound 1.265 µM) it was 0.444; in assay [1] (first compound 0.04 µM), 1; in assay [1] (first compound 0.1265 µM) it was 0.951. For the same cell line, the relative viability in assay [1] (first compound 0.4 µM) stood at 0.828; in assay [1] (first compound 1.265 µM), 0.71; in assay [2] (first compound 0.04 µM), 0.514; in assay [2] (first compound 0.1265 µM) it was 0.688; in assay [2] (first compound 0.4 µM), 0.554; in assay [2] (first compound 1.265 µM), 0.511. The relative viability is 0.461 in assay [3] (first compound 0.04 µM); 0.484 in assay [3] (first compound 0.1265 µM); 0.39 in assay [3] (first compound 0.4 µM); 0.441 in assay [3] (first compound 1.265 µM); 0.261 in assay [4] (first compound 0.04 µM); 0.245 in assay [4] (first compound 0.1265 µM). In addition, the results for the relative viability in assay [4] (first compound 0.4 µM) and in assay [4] (first compound 1.265 µM) were 0.274 and 0.238, respectively.

COR-L 105: the relative viability is 0.453 in assay [5] (first compound 0.04 µM); 0.338 in assay [5] (first compound 0.1265 µM); 0.401 in assay [5] (first compound 0.4 µM); 0.314 in assay [5] (first compound 1.265 µM); 0.879 in assay [1] (first compound 0.04 µM); 0.835 in assay [1] (first compound 0.1265 µM). Further, the relative viability stood at 0.788 in assay [1] (first compound 0.4 µM); 0.849 in assay [1] (first compound 1.265 µM); 0.659 in assay [2] (first compound 0.04 µM); 0.665 in assay [2] (first compound 0.1265 µM); 0.582 in assay [2] (first compound 0.4 µM); 0.466 in assay [2] (first compound 1.265 µM). For the same cell line, the relative viability in assay [3] (first compound 0.04 µM) was 0.376; in assay [3] (first compound 0.1265 µM) it was 0.381; in assay [3] (first compound 0.4 µM) it was 0.359; in assay [3] (first compound 1.265 µM), 0.328; in assay [4] (first compound 0.04 µM) it was 0.42; in assay [4] (first compound 0.1265 µM) it was 0.531. Further, the relative viability is 0.407 in assay [4] (first compound 0.4 µM) and 0.351 in assay [4] (first compound 1.265 µM).
